The results in this text go back to patent US20080063643A1, “Peptide Derived From Hepatitis C Virus” (priority 2003, published 2008).

The subject of one test is peptide-specific IgG. In words: ELISA screening of peptide-reactive IgG in plasma of 12 HCV-1b patients and 10 HDs (Example 2). It counts as binding, human. To be noted: plasma dilution 1:100; for Reactivity to peptide-specific IgG HD (n = 10): number of 10 HDs above cut-off 0.18 OD; for Reactivity to peptide-specific IgG Patients (n = 12): number of 12 HCV-1b+ patients above cut-off 0.18 OD. From the text: Forty-four types of synthetic peptides that were derived from a highly conserved region of HCV-1b protein and selected based on a high binding score to HLA-A24 molecule (Bioinformatics and Molecular Analysis Section, NIH, Bethesda, Md.) were used. A peptide derived from HIV that has an HLA-A24 binding motif ([…] (SEQ ID NO: 63)) served as a negative control. For the screening of the reactivity of peptide to serum IgG, desalted grade of the peptides (>70%) were purchased from BioSynthesis (Lewisville, Tex.) or SynPep (Dublin, Calif.). A purified peptide (>90%) was used in the subsequent experiments. The plasma level of peptide-specific IgG was measured by an enzyme-linked immunosorbent assay (ELISA). The specificity of anti-peptide IgG in a plasma sample was tested by the absorption and elution of peptide-reactive IgG.
In order to screen for a humoral response to the peptides, the level of IgG reactive to each of the 44 types of peptides was assayed in the plasma of 12 patients infected with HCV-1b. The plasma of 10 HDs was used as a negative control. The level of peptide-reactive IgG was measured by ELISA for serially diluted plasma samples and reported by the values of absorbance (OD) of each sample. The cut-off value of these peptides at a plasma dilution of 1:100 was set at 0.18 OD (mean (0.08)+2SD (0.05×2) of 10 HDs). A significant level (>0.18 OD at a plasma dilution of 1:100) of IgG reactive to NS5A-2132, C-176, E2-488, E1-213, C-173 and NS3-1081 peptides were detectable in the plasma of 12, 11, 10, 9, 8 and 5 patients among the 12 patients, respectively (FIG. 9). As expected, none of these peptides was reactive to the plasma from the 10 HDs.
A general note: ELISA stands for enzyme-linked immunosorbent assay.

Test [1] deals with peptide-specific IgG in the serum. In words: ELISA of peptide-specific IgG in sera of HCV patients and healthy donors (Example 1). It counts as binding, human. The settings on record: ELISA, cut-off value 1.83; for Healthy donors (n = 10) Positive n: number of 10 healthy donors with serum IgG reactive to the peptide; for HCV patients (n = 12) Positive n: number of 12 HCV patients with serum IgG reactive to the peptide; for Healthy donors (n = 10) Positive %: share of 10 healthy donors with serum IgG reactive to the peptide; for HCV patients (n = 12) Positive %: share of 12 HCV patients with serum IgG reactive to the peptide. On the procedure: Synthetic peptides having an HLA-A2-binding motif or an HLA-A24-binding motif from a conserved region of HCV genotype 1b protein were used in this study (Table 1). A peptide derived from HIV having an HLA-A2-binding motif was used as a negative control. All of these peptides were purchased from a commercially supplier. The purity was analyzed by reverse-phase high-pressure liquid chromatography and found to be 90% or higher.
The level of the peptide-specific IgG in the serum was measured by ELISA. First, each peptide was dissolved in dimethyl sulfoxide (DMSO) and stored at −80° C. The peptide was diluted with 0.1 M sodium carbonate/sodium bicarbonate solution containing disuccinimidyl suberate (DSS) as a crosslinker. An ELISA plate was coated with 20 μg/well of peptide at 4° C. overnight. The wells were washed 3 times with 0.05% Tween 20/PBS (PBST), and the plate was blocked with Block Ace (registered trademark) and left overnight at 4° C. Plasma or serum samples were diluted in 1:100, 1:200 and 1:400 with 0.05% Tween 20/Block Ace, and 100 μl of each of the samples was added to each well. After the samples were incubated at 37° C. for 2 hours, the plate was washed 9 times with PBST, 100 μl of a 1:1000 diluted rabbit anti-human IgG (γ-chain specific) was added to each well, and incubated at 37° C. for 2 hours. The plate was washed 9 times with PBST, and 100 μl of 1:100 diluted mouse anti-rabbit IgG conjugated to a horseradish peroxidase-dextran polymer was added to each well, and then the plate was incubated at room temperature for 40 minutes. After the plate was washed, 100 μl of a tetramethylbenzidine substrate solution was added to each well. The reaction was stopped by the addition of 2.0 M phosphoric acid. The cutoff value was calculated as the mean±3 SD of the optical density values of the control obtained from the healthy donors.
The level of IgG that reacts with each of the 62 types of peptides was measured in the sera from 12 patients infected with HCV and 10 healthy donors (HDs) (Table 1).

As to HYKLFLARL [No. 9], in the test with peptide-specific IgG, the “Reactivity to peptide-specific IgG HD (n = 10)” value (“Reactivity … (n = 10)” below) came out at 0 and the “Reactivity to peptide-specific IgG Patients (n = 12)” value (“Reactivity … (n = 12)” for short) is 0.
Consider AYALYGVWPL [No. 26], for which, in the test on peptide-specific IgG, the “Reactivity … (n = 10)” value amounted to 0 and the “Reactivity … (n = 12)” value is listed as 2.
On the same counts, the results for AFYGVWPLL [No. 63] are 0 and 0.
For SYTWTGALI [No. 60], in the test on peptide-specific IgG, the “Reactivity … (n = 10)” value is recorded as 0 and the “Reactivity … (n = 12)” value is 0.
AFTASITSPL [No. 35]: in the test with peptide-specific IgG, the “Reactivity … (n = 10)” value came out at 0 and the “Reactivity … (n = 12)” value worked out at 0.
As for EFWESVFTGL [No. 31], in the test on peptide-specific IgG, the “Reactivity … (n = 10)” value was 0 and the “Reactivity … (n = 12)” value was found to be 0.
On to QYLAGLSTL [No. 6], for which, in the test with peptide-specific IgG, the “Reactivity … (n = 10)” value is on record as 0 and the “Reactivity … (n = 12)” value was 0.
Take WFMWCLLLL [No. 62]: in the test with peptide-specific IgG, the “Reactivity … (n = 10)” value amounted to 0 and the “Reactivity … (n = 12)” value is 3.
As for MYTNVDQDL [No. 5], in the test with peptide-specific IgG, the “Reactivity … (n = 10)” value was 0 and the “Reactivity … (n = 12)” value came to 0.
FFTEVDGVRL [No. 37]: in the test with peptide-specific IgG, the “Reactivity … (n = 10)” value is listed as 0 and the “Reactivity … (n = 12)” value stood at 1.
With TYATYGKFL [No. 10], in the test with peptide-specific IgG, the “Reactivity … (n = 10)” value amounted to 0 and the “Reactivity … (n = 12)” value was 1.
On to TYVYDHLTPL [No. 22], for which, in the test with peptide-specific IgG, the “Reactivity … (n = 10)” value was 0 and the “Reactivity … (n = 12)” value is recorded as 2.
On the same counts, the results for AYSQQTRGL [No. 8] are 0 and 0.
For MYVGGVEHRL [No. 20], in that order: 0 and 0.
Regarding YYRGLDVSVI [No. 28], in the test on peptide-specific IgG, the “Reactivity … (n = 10)” value was found to be 0 and the “Reactivity … (n = 12)” value came to 2.
For GYGAGVAGAL [No. 23], in that order: 0 and 2.
As to YFITRAEAHL [No. 34], in the test with peptide-specific IgG, the “Reactivity … (n = 10)” value is given as 1 and the “Reactivity … (n = 12)” value amounted to 1.
In the case of VFVGLILLTL [No. 30], in the test with peptide-specific IgG, the “Reactivity … (n = 10)” value stood at 0 and the “Reactivity … (n = 12)” value was found to be 2.
On the same counts, the results for HYRDVLKEM [No. 61] are 1 and 3.
Regarding HYPCTVNFTI [No. 27], in the test with peptide-specific IgG, the “Reactivity … (n = 10)” value came out at 0 and the “Reactivity … (n = 12)” value stood at 2.
Regarding HYVQMALMKL [No. 21], in the test with peptide-specific IgG, the “Reactivity … (n = 10)” value is reported as 0 and the “Reactivity … (n = 12)” value is listed as 3.
Regarding NFISGIQYL [No. 15], in the test on peptide-specific IgG, the “Reactivity … (n = 10)” value was 0 and the “Reactivity … (n = 12)” value is on record as 0.
On to AYAAQGYKVL [No. 24], for which, in the test with peptide-specific IgG, the “Reactivity … (n = 10)” value was determined as 0 and the “Reactivity … (n = 12)” value stood at 2.
Consider LFLARLIWWL [No. 33], for which, in the test on peptide-specific IgG, the “Reactivity … (n = 10)” value is reported as 0 and the “Reactivity … (n = 12)” value is recorded as 0.
Consider EYVLLLFLL [No. 4], for which, in the test on peptide-specific IgG, the “Reactivity … (n = 10)” value is reported as 0 and the “Reactivity … (n = 12)” value was determined as 2.
On to QFKQKALGLL [No. 66], for which, in the test with peptide-specific IgG, the “Reactivity … (n = 10)” value is listed as 0 and the “Reactivity … (n = 12)” value is on record as 1.
Consider SFAIKWEYVL [No. 39], for which, in the test with peptide-specific IgG, the “Reactivity … (n = 10)” value came to 0 and the “Reactivity … (n = 12)” value amounted to 1.
On the same counts, the results for QFKQKALGL [No. 64] are 0 and 1.
Turning to “24 (AYAAQGYKVL; Hepatitis C Virus) [Peptide 24]”, in test [1], the “Healthy donors (n = 10) Positive n” value is reported as 0, the “HCV patients (n = 12) Positive n” value amounted to 2, the “Healthy donors (n = 10) Positive %” value is on record as 0% and the “HCV patients (n = 12) Positive %” value is 17%.
In the case of “15 (LFLARLIWWL; Hepatitis C Virus) [Peptide 15]”, in test [1], the “Healthy donors (n = 10) Positive n” value was 0, the “HCV patients (n = 12) Positive n” value is on record as 0, the “Healthy donors (n = 10) Positive %” value turned out to be 0% and the “HCV patients (n = 12) Positive %” value amounted to 0%.
Consider “21 (HYVQMALMKL; Hepatitis C Virus) [Peptide 21]”, for which, in test [1], the “Healthy donors (n = 10) Positive n” value is given as 0, the “HCV patients (n = 12) Positive n” value is on record as 5, the “Healthy donors (n = 10) Positive %” value is on record as 0% and the “HCV patients (n = 12) Positive %” value is 42%.
Take “40 (YLLPRRGPRL; Hepatitis C Virus) [Peptide 40]”: in test [1], the “Healthy donors (n = 10) Positive n” value was found to be 0, the “HCV patients (n = 12) Positive n” value was determined as 12, the “Healthy donors (n = 10) Positive %” value worked out at 0% and the “HCV patients (n = 12) Positive %” value is on record as 100%.
Consider “27 (HYPCTVNFTI; Hepatitis C Virus) [Peptide 27]”, for which, in test [1], the “Healthy donors (n = 10) Positive n” value was determined as 0, the “HCV patients (n = 12) Positive n” value is on record as 4, the “Healthy donors (n = 10) Positive %” value was determined as 0% and the “HCV patients (n = 12) Positive %” value stood at 33%.
On to “9 (EYVLLLFLL; Hepatitis C Virus) [Peptide 9]”, for which, in test [1], the “Healthy donors (n = 10) Positive n” value was found to be 0, the “HCV patients (n = 12) Positive n” value is reported as 0, the “Healthy donors (n = 10) Positive %” value is given as 0% and the “HCV patients (n = 12) Positive %” value is 0%.
With “62 (WFMWCLLLL; Hepatitis C Virus) [Peptide 62]”, in test [1], the “Healthy donors (n = 10) Positive n” value amounted to 0, the “HCV patients (n = 12) Positive n” value came to 7, the “Healthy donors (n = 10) Positive %” value is 0% and the “HCV patients (n = 12) Positive %” value came to 58%.
Turning to “41 (SYTWTGALI; Hepatitis C Virus) [Peptide 41]”, in test [1], the “Healthy donors (n = 10) Positive n” value was found to be 0, the “HCV patients (n = 12) Positive n” value turned out to be 0, the “Healthy donors (n = 10) Positive %” value is recorded as 0% and the “HCV patients (n = 12) Positive %” value is on record as 0%.
On to “3 (RYAPACKPL; Hepatitis C Virus) [Peptide 3]”, for which, in test [1], the “Healthy donors (n = 10) Positive n” value was 1, the “HCV patients (n = 12) Positive n” value was 12, the “Healthy donors (n = 10) Positive %” value amounted to 10% and the “HCV patients (n = 12) Positive %” value was 100%.
Regarding “55 (GLQDCTMLV; Hepatitis C Virus) [Peptide 55]”, in test [1], the “Healthy donors (n = 10) Positive n” value was determined as 1, the “HCV patients (n = 12) Positive n” value is reported as 2, the “Healthy donors (n = 10) Positive %” value turned out to be 10% and the “HCV patients (n = 12) Positive %” value is given as 17%.
For “22 (TYVYDHLTPL; Hepatitis C Virus) [Peptide 22]”, in test [1], the “Healthy donors (n = 10) Positive n” value was 0, the “HCV patients (n = 12) Positive n” value turned out to be 7, the “Healthy donors (n = 10) Positive %” value came to 0% and the “HCV patients (n = 12) Positive %” value is recorded as 58%.
For “6 (HYPCTVNFTI; Hepatitis C Virus) [Peptide 6]”, in test [1], the “Healthy donors (n = 10) Positive n” value was determined as 0, the “HCV patients (n = 12) Positive n” value is 0, the “Healthy donors (n = 10) Positive %” value was 0% and the “HCV patients (n = 12) Positive %” value amounted to 0%.
